The structures appear in SMILES notation.

Common to all, as to assay: biochemical
Common to all, as to type: biochemical

The target of assay [1] is T1, 382 unique human kinases (Homo sapiens, UniProt P07949, A883F).
T1 construct: purchased Reaction Biology (HotSpot contract assay)
To be noted: kinase RET (A883F), compound 10 uM; for remaining activity at 10 µM: read-out: % Enzyme Activity (relative to DMSO controls).

Assay [2] addresses T2, 382 unique human kinases (Homo sapiens, UniProt P21802).
T2 construct: purchased Reaction Biology (HotSpot contract assay)
To be noted: FGFR2, 10 uM; for remaining activity at 10 µM: read-out: % Enzyme Activity (relative to DMSO controls).

Assay [3] deals with T3, 382 unique human kinases (Homo sapiens, UniProt P30530).
T3 construct: purchased Reaction Biology (HotSpot contract assay)
T3 sequence (P30530 26-894): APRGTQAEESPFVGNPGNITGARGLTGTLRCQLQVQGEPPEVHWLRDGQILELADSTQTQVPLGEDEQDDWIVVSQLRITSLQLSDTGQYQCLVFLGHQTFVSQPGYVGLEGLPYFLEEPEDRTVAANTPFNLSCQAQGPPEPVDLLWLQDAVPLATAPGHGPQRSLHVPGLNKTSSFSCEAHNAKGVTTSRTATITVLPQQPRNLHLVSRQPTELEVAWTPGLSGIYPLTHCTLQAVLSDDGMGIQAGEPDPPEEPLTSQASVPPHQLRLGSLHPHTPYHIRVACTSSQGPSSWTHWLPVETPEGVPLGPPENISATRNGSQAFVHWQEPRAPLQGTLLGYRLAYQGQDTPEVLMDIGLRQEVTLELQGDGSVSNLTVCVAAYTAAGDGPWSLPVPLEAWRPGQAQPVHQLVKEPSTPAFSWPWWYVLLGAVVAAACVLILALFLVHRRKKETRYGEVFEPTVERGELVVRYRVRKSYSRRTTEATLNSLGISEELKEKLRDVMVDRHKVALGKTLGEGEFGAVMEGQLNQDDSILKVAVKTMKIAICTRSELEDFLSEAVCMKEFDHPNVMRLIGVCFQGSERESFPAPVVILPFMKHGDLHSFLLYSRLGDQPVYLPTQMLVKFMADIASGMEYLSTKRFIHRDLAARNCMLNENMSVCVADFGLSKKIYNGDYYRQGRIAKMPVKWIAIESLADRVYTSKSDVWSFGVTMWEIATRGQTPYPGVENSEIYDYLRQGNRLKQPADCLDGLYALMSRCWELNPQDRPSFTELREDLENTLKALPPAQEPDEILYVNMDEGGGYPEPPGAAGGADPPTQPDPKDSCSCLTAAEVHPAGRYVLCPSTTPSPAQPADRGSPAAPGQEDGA
As to conditions: kinase AXL, compound 10 uM; for remaining activity at 10 µM: read-out: % Enzyme Activity (relative to DMSO controls).

Assay [4] addresses T4, 382 unique human kinases (Homo sapiens, UniProt P53778).
T4 construct: purchased Reaction Biology (HotSpot contract assay)
T4 sequence (P53778 1-367): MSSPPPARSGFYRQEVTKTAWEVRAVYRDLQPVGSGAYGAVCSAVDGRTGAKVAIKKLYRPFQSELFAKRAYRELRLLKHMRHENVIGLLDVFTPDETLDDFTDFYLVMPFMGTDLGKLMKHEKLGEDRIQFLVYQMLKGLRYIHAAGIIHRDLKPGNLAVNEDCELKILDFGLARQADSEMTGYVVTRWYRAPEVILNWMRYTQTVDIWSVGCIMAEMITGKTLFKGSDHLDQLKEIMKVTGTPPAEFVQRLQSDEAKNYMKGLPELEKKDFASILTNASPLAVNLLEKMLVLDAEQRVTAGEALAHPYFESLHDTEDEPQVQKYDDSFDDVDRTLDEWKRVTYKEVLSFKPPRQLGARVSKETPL
As to conditions: P38g, compound at 10 uM, duplicate values; for remaining activity at 10 µM: read-out: % Enzyme Activity (relative to DMSO controls).

For assay [5], the target named is T5, 382 unique human kinases (Homo sapiens, UniProt Q05397).
T5 construct: purchased Reaction Biology (HotSpot contract assay)
To be noted: kinase FAK/PTK2, compound 10 uM; for remaining activity at 10 µM: read-out: % Enzyme Activity (relative to DMSO controls).

The target of assay [6] is T6, 382 unique human kinases (Homo sapiens, UniProt Q12851).
T6 construct: purchased Reaction Biology (HotSpot contract assay)
T6 sequence (Q12851 1-820): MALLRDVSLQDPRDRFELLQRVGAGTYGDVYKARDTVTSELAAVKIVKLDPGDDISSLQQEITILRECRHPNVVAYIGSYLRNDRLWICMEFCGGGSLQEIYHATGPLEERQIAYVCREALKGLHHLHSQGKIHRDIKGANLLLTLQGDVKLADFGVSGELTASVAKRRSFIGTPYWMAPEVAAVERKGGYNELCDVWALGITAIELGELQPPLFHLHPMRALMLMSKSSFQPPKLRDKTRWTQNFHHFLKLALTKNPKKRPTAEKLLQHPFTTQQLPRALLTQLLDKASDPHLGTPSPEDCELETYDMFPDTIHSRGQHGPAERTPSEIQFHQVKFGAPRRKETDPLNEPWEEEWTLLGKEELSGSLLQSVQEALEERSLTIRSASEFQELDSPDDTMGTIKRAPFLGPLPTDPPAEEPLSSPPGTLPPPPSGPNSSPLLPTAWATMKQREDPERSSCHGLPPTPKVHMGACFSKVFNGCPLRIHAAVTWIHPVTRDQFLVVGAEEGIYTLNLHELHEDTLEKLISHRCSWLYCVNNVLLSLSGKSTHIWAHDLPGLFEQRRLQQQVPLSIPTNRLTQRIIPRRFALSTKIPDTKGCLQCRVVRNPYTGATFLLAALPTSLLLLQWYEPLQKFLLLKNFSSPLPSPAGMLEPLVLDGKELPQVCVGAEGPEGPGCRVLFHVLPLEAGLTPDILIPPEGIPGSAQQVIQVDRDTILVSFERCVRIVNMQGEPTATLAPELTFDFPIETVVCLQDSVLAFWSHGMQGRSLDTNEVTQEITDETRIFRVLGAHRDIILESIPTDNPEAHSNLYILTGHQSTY
As to conditions: GCK/MAP4K2, 10 uM; for remaining activity at 10 µM: read-out: % Enzyme Activity (relative to DMSO controls).

The target of assay [7] is T7, 382 unique human kinases (Homo sapiens, UniProt Q8IU85).
T7 construct: purchased Reaction Biology (HotSpot contract assay)
To be noted: kinase CAMK1d, compound 10 uM; for remaining activity at 10 µM: read-out: % Enzyme Activity (relative to DMSO controls).

In assay [8] the target is T8, 382 unique human kinases (Homo sapiens, UniProt Q9Y3S1).
T8 construct: purchased Reaction Biology (HotSpot contract assay)
To be noted: WNK2, 10 uM; for remaining activity at 10 µM: read-out: % Enzyme Activity (relative to DMSO controls).

The target in assay [9] is T9, 382 unique human kinases (Homo sapiens, UniProt Q14680).
T9 construct: purchased Reaction Biology (HotSpot contract assay)
As to conditions: MELK, [ATP] 50 µM, compound 10 uM; for remaining activity at 10 µM: read-out: % Enzyme Activity (relative to DMSO controls).

In assay [10] the target is T10, 382 unique human kinases (Homo sapiens, UniProt Q9UM73, S1206R).
T10 construct: purchased Reaction Biology (HotSpot contract assay)
To be noted: ALK (S1206R), [ATP] 20 µM, compound 10 uM; for remaining activity at 10 µM: read-out: % Enzyme Activity (relative to DMSO controls).

T5 sequence (Q05397 whole entry): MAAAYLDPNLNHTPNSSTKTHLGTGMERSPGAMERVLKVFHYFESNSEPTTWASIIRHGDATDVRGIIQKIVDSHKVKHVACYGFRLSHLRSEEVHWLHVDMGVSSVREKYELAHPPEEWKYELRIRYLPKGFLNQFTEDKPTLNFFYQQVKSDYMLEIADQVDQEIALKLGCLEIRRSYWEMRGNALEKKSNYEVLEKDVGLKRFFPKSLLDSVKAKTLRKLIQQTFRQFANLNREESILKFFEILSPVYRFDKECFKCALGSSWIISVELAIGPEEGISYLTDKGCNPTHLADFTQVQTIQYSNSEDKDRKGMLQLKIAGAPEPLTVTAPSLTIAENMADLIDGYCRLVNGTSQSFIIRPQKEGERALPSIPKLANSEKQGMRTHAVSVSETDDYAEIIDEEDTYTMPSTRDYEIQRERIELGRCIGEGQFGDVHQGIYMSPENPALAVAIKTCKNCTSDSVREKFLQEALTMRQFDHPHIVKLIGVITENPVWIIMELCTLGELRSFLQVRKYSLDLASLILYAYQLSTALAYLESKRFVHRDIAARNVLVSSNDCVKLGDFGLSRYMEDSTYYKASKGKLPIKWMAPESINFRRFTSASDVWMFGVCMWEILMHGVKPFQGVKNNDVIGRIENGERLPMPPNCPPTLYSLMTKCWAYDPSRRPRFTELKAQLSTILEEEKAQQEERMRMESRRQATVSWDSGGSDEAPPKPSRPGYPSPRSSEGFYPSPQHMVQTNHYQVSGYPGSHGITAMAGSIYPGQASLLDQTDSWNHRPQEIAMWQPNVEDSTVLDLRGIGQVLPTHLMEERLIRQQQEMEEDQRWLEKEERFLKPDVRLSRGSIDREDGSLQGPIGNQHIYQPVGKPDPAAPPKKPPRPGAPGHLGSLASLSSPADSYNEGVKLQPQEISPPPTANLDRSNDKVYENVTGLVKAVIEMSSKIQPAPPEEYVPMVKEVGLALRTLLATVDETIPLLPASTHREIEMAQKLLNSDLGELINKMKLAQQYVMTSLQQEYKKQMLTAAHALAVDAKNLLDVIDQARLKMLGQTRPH
T9 sequence (Q14680 whole entry): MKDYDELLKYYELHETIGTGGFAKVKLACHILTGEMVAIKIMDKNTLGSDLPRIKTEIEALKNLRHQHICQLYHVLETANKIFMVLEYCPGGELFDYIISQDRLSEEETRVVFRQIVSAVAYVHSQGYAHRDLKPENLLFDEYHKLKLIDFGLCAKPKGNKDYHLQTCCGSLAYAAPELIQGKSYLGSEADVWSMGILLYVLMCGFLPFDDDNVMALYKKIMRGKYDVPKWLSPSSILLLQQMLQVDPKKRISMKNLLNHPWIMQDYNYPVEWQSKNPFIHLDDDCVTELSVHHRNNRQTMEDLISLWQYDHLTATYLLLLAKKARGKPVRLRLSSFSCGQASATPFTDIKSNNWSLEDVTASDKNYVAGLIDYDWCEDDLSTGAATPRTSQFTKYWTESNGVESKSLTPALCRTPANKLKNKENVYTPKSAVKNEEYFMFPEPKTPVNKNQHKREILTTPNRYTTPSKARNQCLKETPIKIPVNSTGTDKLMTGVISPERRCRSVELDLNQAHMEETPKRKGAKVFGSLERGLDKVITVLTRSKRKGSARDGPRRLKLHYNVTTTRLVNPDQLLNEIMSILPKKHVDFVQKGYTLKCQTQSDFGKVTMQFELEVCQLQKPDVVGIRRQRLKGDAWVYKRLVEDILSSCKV
T2 sequence (P21802 22-821): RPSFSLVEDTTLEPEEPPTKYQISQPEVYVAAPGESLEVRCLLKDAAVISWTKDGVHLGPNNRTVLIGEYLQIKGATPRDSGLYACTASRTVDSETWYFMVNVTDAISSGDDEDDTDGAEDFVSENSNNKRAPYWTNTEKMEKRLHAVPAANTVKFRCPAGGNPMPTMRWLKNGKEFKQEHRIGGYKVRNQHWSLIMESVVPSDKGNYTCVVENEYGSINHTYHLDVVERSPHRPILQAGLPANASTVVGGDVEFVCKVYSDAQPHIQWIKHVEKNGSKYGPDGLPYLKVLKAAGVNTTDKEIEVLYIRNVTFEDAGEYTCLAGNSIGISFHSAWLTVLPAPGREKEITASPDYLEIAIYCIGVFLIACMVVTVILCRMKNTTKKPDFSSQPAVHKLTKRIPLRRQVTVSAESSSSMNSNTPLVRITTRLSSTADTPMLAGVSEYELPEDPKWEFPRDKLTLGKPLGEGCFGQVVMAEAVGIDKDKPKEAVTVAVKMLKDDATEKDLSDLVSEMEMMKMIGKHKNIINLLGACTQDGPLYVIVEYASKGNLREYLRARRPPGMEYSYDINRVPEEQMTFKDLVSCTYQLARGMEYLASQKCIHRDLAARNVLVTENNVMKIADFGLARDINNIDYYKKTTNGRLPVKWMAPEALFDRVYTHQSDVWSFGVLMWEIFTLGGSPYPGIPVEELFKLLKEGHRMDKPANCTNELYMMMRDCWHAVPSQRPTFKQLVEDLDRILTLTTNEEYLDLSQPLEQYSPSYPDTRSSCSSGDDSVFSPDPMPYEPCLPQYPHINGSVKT
T7 sequence (Q8IU85 whole entry): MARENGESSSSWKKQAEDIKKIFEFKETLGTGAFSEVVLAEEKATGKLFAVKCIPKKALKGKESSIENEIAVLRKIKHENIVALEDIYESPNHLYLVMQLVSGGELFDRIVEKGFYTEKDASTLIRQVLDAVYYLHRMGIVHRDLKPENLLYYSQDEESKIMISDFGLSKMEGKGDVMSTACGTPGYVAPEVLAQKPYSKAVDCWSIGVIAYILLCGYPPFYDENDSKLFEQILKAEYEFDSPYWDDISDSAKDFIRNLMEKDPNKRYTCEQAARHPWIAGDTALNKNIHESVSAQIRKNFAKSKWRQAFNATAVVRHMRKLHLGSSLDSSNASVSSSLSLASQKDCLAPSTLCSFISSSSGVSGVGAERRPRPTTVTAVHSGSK
T10 sequence (Q9UM73 19-1620 S1206R): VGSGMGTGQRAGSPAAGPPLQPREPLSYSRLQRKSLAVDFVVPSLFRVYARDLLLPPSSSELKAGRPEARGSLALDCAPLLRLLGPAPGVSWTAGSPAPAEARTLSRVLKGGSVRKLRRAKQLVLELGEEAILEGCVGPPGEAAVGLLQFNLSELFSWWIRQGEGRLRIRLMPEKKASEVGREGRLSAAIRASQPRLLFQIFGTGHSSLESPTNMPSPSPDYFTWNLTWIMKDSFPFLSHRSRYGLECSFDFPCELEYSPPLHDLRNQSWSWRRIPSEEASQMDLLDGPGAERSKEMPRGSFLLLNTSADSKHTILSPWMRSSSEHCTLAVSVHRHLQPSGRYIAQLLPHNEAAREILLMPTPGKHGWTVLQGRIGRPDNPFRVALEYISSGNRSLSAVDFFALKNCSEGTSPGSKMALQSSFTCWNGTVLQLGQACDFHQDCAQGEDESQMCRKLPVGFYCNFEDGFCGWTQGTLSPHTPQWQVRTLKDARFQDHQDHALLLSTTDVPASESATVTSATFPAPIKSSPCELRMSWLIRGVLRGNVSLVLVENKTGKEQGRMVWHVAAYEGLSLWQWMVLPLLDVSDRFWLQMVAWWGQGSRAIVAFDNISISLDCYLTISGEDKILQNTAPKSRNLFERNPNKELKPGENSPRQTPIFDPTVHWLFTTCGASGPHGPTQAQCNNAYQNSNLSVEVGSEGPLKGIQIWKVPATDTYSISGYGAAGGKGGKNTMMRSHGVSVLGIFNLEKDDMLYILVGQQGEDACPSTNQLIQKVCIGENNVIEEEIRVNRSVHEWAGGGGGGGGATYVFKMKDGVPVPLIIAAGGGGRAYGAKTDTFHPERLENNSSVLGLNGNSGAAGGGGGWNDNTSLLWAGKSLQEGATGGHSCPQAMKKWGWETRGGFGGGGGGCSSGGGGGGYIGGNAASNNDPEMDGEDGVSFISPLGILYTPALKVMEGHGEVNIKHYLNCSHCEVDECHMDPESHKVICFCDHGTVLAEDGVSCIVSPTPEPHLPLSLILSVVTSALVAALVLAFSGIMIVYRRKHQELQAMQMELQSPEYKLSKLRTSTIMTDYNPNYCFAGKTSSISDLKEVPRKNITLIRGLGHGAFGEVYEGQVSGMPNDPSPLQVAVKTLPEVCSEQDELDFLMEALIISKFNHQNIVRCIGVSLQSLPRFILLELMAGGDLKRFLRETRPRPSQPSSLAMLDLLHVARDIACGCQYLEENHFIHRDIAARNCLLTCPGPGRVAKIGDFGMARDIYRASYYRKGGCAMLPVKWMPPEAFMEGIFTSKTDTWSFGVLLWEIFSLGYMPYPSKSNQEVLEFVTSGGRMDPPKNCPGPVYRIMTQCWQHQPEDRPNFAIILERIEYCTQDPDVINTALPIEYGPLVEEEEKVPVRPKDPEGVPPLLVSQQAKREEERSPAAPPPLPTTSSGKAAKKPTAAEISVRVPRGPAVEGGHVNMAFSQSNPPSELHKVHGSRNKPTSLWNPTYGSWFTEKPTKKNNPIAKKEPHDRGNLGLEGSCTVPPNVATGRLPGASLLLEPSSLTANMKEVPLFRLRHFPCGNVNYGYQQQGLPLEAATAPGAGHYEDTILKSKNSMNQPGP

On to `CC(C)c1cc(-c2n[nH]c(=O)n2-c2ccc3c(ccn3C)c2)c(O)cc1O` [Ganetespib (STA9090)], for which the remaining activity at 10 µM on 382 unique human kinases [1] was determined as 83.7%; on 382 unique human kinases [2], 68.3%; at 382 unique human kinases [3], 84%; at 382 unique human kinases [4] it was 119%; on 382 unique human kinases [5], 91.3%; at 382 unique human kinases [6] it was 76%. In addition, the results for the remaining activity at 10 µM at 382 unique human kinases [7] and on 382 unique human kinases [8] were 86.2% and 59.5%, respectively.
Regarding `CC(C)c1cc(-c2n[nH]c(=O)n2-c2ccc3c(ccn3C)c2)c(O)cc1O` [Ganetespib], the results for the remaining activity at 10 µM at 382 unique human kinases [9] and on 382 unique human kinases [10] were 44.5% and 42%, respectively.
On to `CCNC(=O)c1noc(-c2cc(C(C)C)c(O)cc2O)c1-c1ccc(CN2CCOCC2)cc1` [Luminespib (AUY-922)], for which the “% Enzyme Activity (relative to DMSO controls)” value came out at 95.34% on 382 unique human kinases [1]; 98.90% at 382 unique human kinases [2]; 97.82% at 382 unique human kinases [3]; 104.66% on 382 unique human kinases [4]; 96.62% on 382 unique human kinases [5]; 94.14% at 382 unique human kinases [6]. Also, the entries for the “% Enzyme Activity (relative to DMSO controls)” value at 382 unique human kinases [7] and on 382 unique human kinases [8] were 100.18% and 106.80%, respectively. In addition, the remaining activity at 10 µM was found to be 96.4% on 382 unique human kinases [1]; 99.8% on 382 unique human kinases [2]; 98.9% at 382 unique human kinases [3]; 106% at 382 unique human kinases [4]; 98% at 382 unique human kinases [5]; 97.2% at 382 unique human kinases [6]. Also, the remaining activity at 10 µM came out at 101% on 382 unique human kinases [7] and 107% at 382 unique human kinases [8].
For `CCNC(=O)c1noc(-c2cc(C(C)C)c(O)cc2O)c1-c1ccc(CN2CCOCC2)cc1` [Luminespib], the entries for the “% Enzyme Activity (relative to DMSO controls)” value on 382 unique human kinases [9] and at 382 unique human kinases [10] were 56.86% and 100.88%, respectively. The remaining activity at 10 µM on 382 unique human kinases [9] came to 56.9%; at 382 unique human kinases [10], 104%.

Source of the values: PMC8550792, “Evolution of kinase polypharmacology across HSP90 drug discovery” (Cell Chemical Biology, 2021).
